The values that follow are results of earlier work, collected in US9572781B2, “Orally disintegrating tablet compositions comprising combinations of non-opioid and opioid analgesics” (Adare Pharmaceuticals, Inc., priority 2009, dated 2017).

Take `CC(=O)Nc1ccc(O)cc1` [acetaminophen]: the Drug detectable result (after about 8 hours) was “only traces”. Further, for the setting “following oral administration”, the “Time to peak plasma concentrations” value is 30 to 60 min.
